Target: T1, novel organic cation transporter 1 (hOCTN1) (Homo sapiens, UniProt Q9H015)
T1 construct: gene SLC22A4
T1 sequence (Q9H015 1-551): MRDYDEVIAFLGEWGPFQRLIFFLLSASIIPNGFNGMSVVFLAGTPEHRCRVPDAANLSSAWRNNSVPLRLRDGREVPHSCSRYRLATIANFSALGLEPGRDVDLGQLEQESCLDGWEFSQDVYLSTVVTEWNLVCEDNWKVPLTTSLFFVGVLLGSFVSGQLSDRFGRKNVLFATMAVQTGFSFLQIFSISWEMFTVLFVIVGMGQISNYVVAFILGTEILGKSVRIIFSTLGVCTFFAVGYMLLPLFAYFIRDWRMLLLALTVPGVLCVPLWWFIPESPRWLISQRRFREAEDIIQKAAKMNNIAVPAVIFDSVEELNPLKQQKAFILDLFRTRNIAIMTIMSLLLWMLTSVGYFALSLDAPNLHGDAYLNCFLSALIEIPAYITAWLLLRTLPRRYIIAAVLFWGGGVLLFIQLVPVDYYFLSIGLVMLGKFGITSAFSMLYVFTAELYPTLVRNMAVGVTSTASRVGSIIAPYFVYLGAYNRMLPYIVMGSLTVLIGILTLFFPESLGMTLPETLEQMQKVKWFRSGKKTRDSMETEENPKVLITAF
Assay: ASP+ uptake in HEK293 cells with doxycycline-induced versus uninduced hOCTN1
Format: cell-based
Text: ASP+ uptake in HEK293 cells with doxycycline-induced versus uninduced hOCTN1 on novel organic cation transporter 1 (hOCTN1) | ASP^+ is a substrate for hOCTN1. Comparison of ASP^+ uptake by HEK293 cells stably transfected

Structure (SMILES): CN(C)c1ccc(C=Cc2cc[n+](C)cc2)cc1 [ASP+, 4-(4-(Dimethylamino)Styryl)-N-methylpyridinium]
- ASP+ uptake in HEK293 cells with doxycycline-induced versus uninduced hOCTN1: ASP^+ is a substrate for hOCTN1. Comparison of ASP^+ uptake by HEK293 cells stably transfected
